Measurements published in patent US5837686A, “Peptides and antibodies for treatment of rheumatoid arthritis” (Peptide Therapeutics Limited, priority 1991, dated 1998).
Ends that are not written are not given here.

Legend:
[1] = test system: alternative complement (C3) pathway; assay: Inhibition of C3-activation (IgA-α1 AT complex activation of alternative complement pathway, rabbit RBC lysis); type: biochemical, human; settings: for C' minimum: Table 6, minimum concentration needed to prevent C3 activation
Protocol: Various peptides were tested for their ability to prevent the IgA-α1 AT complex from activating the alternative complement (C3) pathway. […] This method was based on the method described by Riches and Stanworth, Immunology Letters, 1980, 1, 363,366, with modification to miniaturise it thus allowing the assay to be carried out on microtitre plates. The initial observation by […] and Ishizaka (J Immunol. […] The non-immune complex IgA-α1 AT had been shown in the past to be the only known soluble complex to activate the alternative pathway complement and inhibit the lysis of the rabbit erythrocytes. This inhibition required biologically active complex. […] Positive and negative controls, serum only controls and serum plus IgA-α1 AT complex controls were included in the assay. 25 μl of a suitable dilution of IgA-α1 AT complex (see (iii) above) was added to the test wells and the plates were centrifuged at 2000 rpm for 1 minute. The plates were then incubated at 37° C. for 11/2 hours. 50 μl of a suitable serum dilution (see (a) above) was added and the plates centrifuged at 2000 rpm for 10 minute, then incubated at 37° C. for 30 minutes. 50 μl of 1% rabbit RBC was added and after a further 30 minutes of 37° C. incubation, the plates were centrifuged at 2000 rpm for 10 minutes. Supernatants were taken as previously. The mean values of each of the serum(s), serum and complex (c+s) and total haemolysis wells were calculated. The % haemolysis with respect to lysis by serum wells was calculated. The peptide was considered to have titred out when % lysis value was equal to the calculated % lysis value given by the c+s mean. The titre point for the peptide was calculated as the concentration in μM of the peptide that just gave greater lysis than the c+s mean value.

IgA-α1 AT complex = assay: HPLC analysis of dissociation of purified IgA-α1 AT complex in vitro; type: biochemical, human; settings: for HPLC minimum: Table 6, minimum concentration giving complex: free IgA ratio of 20%, >500 = no dissociation at highest concentration tested; for anti-complex activity (in words): summary statements after Tables 2-6
Protocol: The ability of the peptides of the invention to dissociate purified IgA-α1 AT complex in vitro was tested as described below. The anti-rheumatic drug D-penicillamine and other synthetic peptides were used as controls. […] The sample was monitored at wavelength 206 nm at a flow rate of 1 ml/minute with phosphate buffer (0.1M) pH 7.1. They represent the ability of the peptides to dissociate the IgA-α1 AT complex in vitro. In these experiments, the base-lines level comprises a complex: free IgA ratio of 14%. The minimum concentration of peptide taken to produce a positive dissociation effect is that which results in a complex: free IgA ratio at 20%. In the results tables, all the peptide values are expressed in μMoles.

Molecule	C' minimum [1] [µM]	HPLC minimum (IgA-α1 AT complex) [µM]	anti-complex activity (in words) (IgA-α1 AT complex)	C' ([1]; Table 1, minimum concentration of peptide needed to prevent C3 activation) [µM]	HPLC % (IgA-α1 AT complex; Table 1, minimum peptide concentration giving complex: free IgA ratio of 20% (base-line 14%), 90 minutes at 37° C.) [µM]
N[C@@H](CS)C(=O)O [Cysteine]	16	250			
N[C@@H](CCC(=O)N[C@@H](CS)C(=O)NCC(=O)O)C(=O)O [Glutathione]	31	500	relatively inactive		
CC(C)(S)[C@@H](N)C(=O)O [D-Penicillamine]	31	250			
CC(=O)N[C@@H](CS)C(=O)O [N-acetyl Cysteine]	4	500	relatively inactive		
Substance P (RPKPQQFFGLM; ends and bridges not checked; UniProt P20366 58-68, looked up) [control peptide of Group 6]	> 500	> 500			
HGCGGGGnh2 [Peptide 168]				8	10
